We go through 18 molecules from patent US20260085062A1, “NOVEL COMPOUNDS AS CK2 INHIBITORS” (Cambridge Enterprise Limited, priority 2022, published 2026).

One test concerns the target T1, intracellular CK2α (Homo sapiens, UniProt P19784).
T1 construct: host or cells: HCT116 (ATCC CCL-247)
In words: Cell-based NanoBRET assay for inhibitor binding to intracellular CK2α. As to conditions: HCT116 cells transiently transfected with CSNK2A2-NanoLuc fusion vector; Tracer K-5; 2 h; read-out: Assay 3: NanoBRET ™ assay for binding to intracellular CK2α. An outline of the steps: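 Living cells expressing NanoLuc-CK2α fusion were given a fixed tracer concentration, and compounds competitively displaced the reversibly bound tracer. Donor (450 nm) and acceptor (610 or 630 nm) emissions were read; BRET ratio = (acceptor/donor)×1,000, giving apparent intracellular affinity.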
(In general: BRET reads energy transfer from a luciferase to a nearby fluorophore.)

The next test concerns the target T2, CK2α (Homo sapiens, UniProt P68400).
T2 construct: CK2α (residues 2-329) was produced in Escherichia coli BL21 (DE3) for kinase activity screening; His6 (N, cleaved yes); made in house; host or cells: Escherichia coli BL21 (DE3)
T2 sequence (P68400 2-329): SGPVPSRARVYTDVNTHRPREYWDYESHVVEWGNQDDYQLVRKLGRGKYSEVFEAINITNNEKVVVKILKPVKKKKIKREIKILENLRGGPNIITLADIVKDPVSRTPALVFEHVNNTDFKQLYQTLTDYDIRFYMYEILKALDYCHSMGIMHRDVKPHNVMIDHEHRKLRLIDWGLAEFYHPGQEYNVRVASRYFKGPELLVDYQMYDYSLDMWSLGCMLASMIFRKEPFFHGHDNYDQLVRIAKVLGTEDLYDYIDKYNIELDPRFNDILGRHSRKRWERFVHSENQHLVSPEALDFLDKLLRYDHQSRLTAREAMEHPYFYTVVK
In words: Biochemical assay for inhibitors of CK2α kinase activity (ADP-Glo). As to conditions: 0.2 nM CK2α, 50 μM peptide substrate, 15 μM ATP, read-out: Assay 1: CK2α Enzyme IC50. Background: ADP-Glo turns the ADP formed in a reaction into a luminescent signal.

For another test, the target named is T3, CLK2 (Homo sapiens, UniProt P49760).
T3 construct: purchased Carna Biosciences 04-127
In words: Biochemical assay for inhibitors of CLK2 kinase activity (ADP-Glo). The following applies: 20 nM CLK2, 50 μM peptide substrate, 100 μM ATP, read-out: Assay 2: CLK2 Enzyme IC50.

T1 sequence (P19784 whole entry): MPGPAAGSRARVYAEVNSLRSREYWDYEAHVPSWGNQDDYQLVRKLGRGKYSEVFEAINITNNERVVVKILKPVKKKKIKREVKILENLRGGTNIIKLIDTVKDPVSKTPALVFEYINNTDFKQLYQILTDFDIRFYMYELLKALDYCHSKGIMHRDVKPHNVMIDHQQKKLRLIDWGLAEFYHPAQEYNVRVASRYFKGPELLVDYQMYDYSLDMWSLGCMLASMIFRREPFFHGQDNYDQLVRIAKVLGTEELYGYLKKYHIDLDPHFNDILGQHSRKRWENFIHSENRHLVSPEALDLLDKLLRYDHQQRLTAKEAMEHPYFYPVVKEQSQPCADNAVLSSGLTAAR
T3 sequence (P49760 whole entry): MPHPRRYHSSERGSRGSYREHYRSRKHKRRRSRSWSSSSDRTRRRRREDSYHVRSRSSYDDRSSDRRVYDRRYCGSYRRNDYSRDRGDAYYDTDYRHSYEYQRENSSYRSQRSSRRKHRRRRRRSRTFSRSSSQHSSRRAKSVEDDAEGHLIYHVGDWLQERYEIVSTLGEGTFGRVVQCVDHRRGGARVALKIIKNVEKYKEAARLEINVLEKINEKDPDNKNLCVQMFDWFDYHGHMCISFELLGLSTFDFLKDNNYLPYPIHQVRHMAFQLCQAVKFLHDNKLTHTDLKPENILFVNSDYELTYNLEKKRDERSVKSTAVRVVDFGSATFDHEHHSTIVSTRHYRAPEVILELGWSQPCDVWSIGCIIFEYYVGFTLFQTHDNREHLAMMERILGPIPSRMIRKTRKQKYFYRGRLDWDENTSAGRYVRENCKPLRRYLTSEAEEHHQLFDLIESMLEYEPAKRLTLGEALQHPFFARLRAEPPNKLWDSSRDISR

As for `O=C(COCCCCNCc1ccc(OC(F)(F)F)c(Cl)c1)Nc1cc(-n2cnnc2)cc2[nH]ncc12` [Example 48, N-(6-(4H-1,2,4-triazol-4-yl)-1H-indazol-4-yl)-2-(4-((3-chloro-4-(trifluoromethoxy)benzyl)amino)butoxy)acetamide], the IC50 on intracellular CK2α was found to be 2750 nM; on CK2α, 20.3 nM; on CLK2, 993 nM.
For `OCc1cc(CNCCCCOC2CN(c3cc(-n4cnnc4)cc4[nH]ncc34)C2)cc(C(F)(F)F)c1` [Example 104, (3-(((4-((1-(6-(4H-1,2,4-triazol-4-yl)-1H-indazol-4-yl)azetidin-3-yl)oxy)butyl)amino)methyl)-5-(trifluoromethyl)phenyl)methanol] the same measures were 14900 nM, 64.2 nM and 264 nM.
In the same order, the values of `Fc1cc(CNCCCCOC2CN(c3cc(-n4cnnc4)cc4[nH]ncc34)C2)ccc1OC(F)(F)F` [Example 129, 4-((6-(6-(4H-1,2,4-triazol-4-yl)-1H-indazol-4-yl)azetidine-3-yl)oxy)-N-(3-fluoro-4-(trifluoromethoxy)benzyl)butan-1-amine] are greater than 50000 nM, 23.5 nM and 494 nM.
For “N-(2-(4-((3-chloro-4-(trifluoromethoxy)benzyl)amino)butoxy)ethyl)-6-(azetidine-4-yl)-1H-benzo[d][1,2,3]triazol-4-amine [Example 127]” the same measures were 306 nM, 5.06 nM and 1380 nM.
As to `FC(F)(F)Oc1ccc(CNCCCCOC2CN(c3cc(-n4cnnc4)cc4[nH]nnc34)C2)cc1Cl` [Example 153, 4-((1-(6-(4H-1,2,4-triazol-4-yl)-1H-benzo[d][1,2,3]triazol-4-yl)azetidin-3-yl)oxy)-N-(3-chloro-4-(trifluoromethoxy)benzyl)butan-1-amine], the IC50 amounted to 34200 nM on intracellular CK2α, 136 nM on CK2α and 11600 nM at CLK2.
On to `FC(F)(F)Oc1ccc(CNCCCCOCCNc2cc(-c3ccnnc3)cc3[nH]nnc23)cc1Cl` [Example 99, N-(2-(4-((3-chloro-4-(trifluoromethoxy)benzyl)amino)butoxy)ethyl)-6-(pyridazin-4-yl)-1H-benzo[d][1,2,3]triazol-4-amine], for which the IC50 at intracellular CK2α worked out at 1010 nM; on CK2α it was 20.1 nM; on CLK2, 28000 nM.
In the same order, the values of `COc1n[nH]cc1-c1cc(NCCOCCCCNCc2cc3cc(C(F)(F)F)ccc3[nH]2)c2cn[nH]c2c1` [Example 92, 6-(3-methoxy-1H-pyrazol-4-yl)-N-(2-(4-(((5-(trifluoromethyl)-1H-indol-2-yl)methyl)amino)butoxy)ethyl)-1H-indazol-4-amine] are 1780 nM, 19.1 nM and 24.1 nM.
Regarding `N#CCc1cc(F)cc(CNCCCCOC2CN(c3cc(-n4cnnc4)cc4[nH]ncc34)C2)c1` [Example 103, 2-(3-(((4-((1-(6-(4H-1,2,4-triazol-4-yl)-1H-indazol-4-yl)azetidin-3-yl)oxy)butyl)amino)methyl)-5-fluorophenyl)acetonitrile], the IC50 at intracellular CK2α was 10700 nM; at CK2α it was 26.5 nM; on CLK2, 129 nM.
For the molecule `O=C(CCNCc1ccc(-c2ccccc2)c(Cl)c1)NCCC(=O)Nc1cc(-n2cnnc2)cc2[nH]ncc12` [Example 12, N-(6-(4H-1,2,4-triazol-4-yl)-1H-indazol-4-yl)-3-(3-(((2-chloro-[1,1′-biphenyl]-4-yl)methyl)amino)propanamido)propanamide], the IC50 on intracellular CK2α stood at 6830 nM; at CK2α, 0.6 nM; at CLK2, 612 nM.
For `O=C(CCNCc1ccc(OC(F)(F)F)c(Cl)c1)NCCCNc1cc(-c2cnns2)cc2[nH]ncc12` [Example 32, N-(3-((6-(1,2,3-thiadiazol-5-yl)-1H-indazol-4-yl)amino)propyl)-3-((3-chloro-4-(trifluoromethoxy)benzyl)amino)propanamide] the same measures were 17.7 nM, 0.47 nM and 75.9 nM.
With `O=C(CCNCc1ccc(-c2ccccc2)c(Cl)c1)NCCCNc1cc(C2COC2)cc2[nH]ncc12` [Example 81, 3-(((2-chloro-[1,1′-biphenyl]-4-yl)methyl)amino)-N-(3-((6-(oxetan-3-yl)-1H-indazol-4-yl)amino)propyl)propanamide], the values for the IC50 on intracellular CK2α, at CK2α and at CLK2 were 808 nM, 7.49 nM and 684 nM, respectively.
In the case of `Fc1cc(CNCCCCOC2CN(c3cc(-c4ccnnc4)cc4[nH]ncc34)C2)ccc1OC(F)(F)F` [Example 108, N-(3-fluoro-4-(trifluoromethoxy)benzyl)-4-((1-(6-(pyridazin-4-yl)-1H-indazol-4-yl)azetidin-3-yl)oxy) butan-1-amine], the IC50 at intracellular CK2α was found to be 2380 nM; at CK2α, 20.9 nM; on CLK2, 2730 nM.
In the same order, the values of `N#CCc1cccc(CNCCC(=O)NCCCNc2cc(-n3cnnc3)cc3[nH]ncc23)c1` [Example 47, N-(3-((6-(4H-1,2,4-triazol-4-yl)-1H-indazol-4-yl)amino)propyl)-3-((3-(cyanomethyl)benzyl)amino)propanamide] are 12000 nM, 2.65 nM and 133 nM.
In the same order, the values of `Fc1cc(CNCCCCOCCNc2cc(-c3ccncc3)c(F)c3[nH]ncc23)cc(F)c1OC(F)(F)F` [Example 176, N-(2-(4-((3,5-difluoro-4-(trifluoromethoxy)benzyl)amino)butoxy)ethyl)-7-fluoro-6-(pyridin-4-yl)-1H-indazol-4-amine] are 217 nM, 5.99 nM and 332 nM.
`O=C(CCNCc1ccc(OC(F)(F)F)c(Cl)c1)NCCCNc1cc(-c2ncns2)cc2[nH]ncc12` [Example 183, N-(3-((6-(1,2,4-thiadiazol-5-yl)-1H-indazol-4-yl)amino)propyl)-3-((3-chloro-4-(trifluoromethoxy)benzyl)amino)propanamide]: the figures for the IC50 on intracellular CK2α, at CK2α and at CLK2 were 145 nM, 2.39 nM and 907 nM, respectively.
`OCc1cc(F)cc(CNCCCCOC2CN(c3cc(-c4cnoc4)cc4[nH]ncc34)C2)c1` [Example 138, (3-fluoro-5-(((4-((1-(6-(isoxazol-4-yl)-1H-indazol-4-yl)azetidin-3-yl)oxy)butyl)amino)methyl)phenyl)methanol]: the results for the IC50 on intracellular CK2α, at CK2α and at CLK2 were 5920 nM, 33.7 nM and 115 nM, respectively.
In the same order, the values of `Clc1ccc2cc(CNCCCCOCCNc3cc(-n4cnnc4)cc4[nH]ncc34)[nH]c2c1` [Example 52, N-(2-(4-(((6-chloro-1H-indol-2-yl)methyl)amino)butoxy)ethyl)-6-(4H-1,2,4-triazol-4-yl)-1H-indazol-4-amine] are 294 nM, 1.43 nM and 38.4 nM.
In the same order, the values of `O=C(CCNCc1cccc(CO)c1)NCCCNc1cc(-n2cnnc2)cc2[nH]ncc12` [Example 35, N-(3-((6-(4H-1,2,4-triazol-4-yl)-1H-indazol-4-yl)amino)propyl)-3-((3-(hydroxymethyl)benzyl)amino)propanamide] are greater than 50000 nM, 17.5 nM and 112 nM.
